One assay has as its system H1975. Description: H1975 CellTiter-Glo. It counts as cell-based. The following applies: Homo sapiens, NCI-H1975; 72 h compound incubation; read-out: H1975 CTG IC50. An outline of the steps:
(§1)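 Seed cells; incubate 24 h at 37° C., 5% CO2; add compound in DMSO over a concentration range; incubate 72 h; add CellTiter-Glo reagent, stabilise 10 min at room temperature; read luminescence; fit IC50.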

The next assay addresses EGFR T790ML858R (Homo sapiens, UniProt P00533, L858R/T790M). Description: EGFR T790ML858R Lance assay. It counts as biochemical. On the procedure: (§2) Inhibition is indicated as […] [nM] (“−”=not measured). Compounds having an activity designated as “A” provided an IC50≤100 nM; compounds having an activity designated as “B” provided an 100 nM<IC50≤500 nM; compounds having an activity designated as “C” provided an 500 nM<IC50≤1000 nM; compounds having an activity designated as “D” provided an 1000 nM<IC50≤100000 nM; and compounds having an activity designated as “E” provided an IC50>10000 nM.

The next assay deals with T1, HER2 INS YVMA (Homo sapiens, UniProt P04626, INS775YVMA).
T1 construct: purchased DPF
Description: Lance Kinase Activity Assay, HER2 INS YVMA (Her2 Exon 20 INSYVMA Lance). Conditions: biochemical Lance assay. It counts as biochemical. An outline of the steps: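 IC50 was fitted to sigmoidal curves of TR-FRET signal (665 and 615 nm emission after 340 nm excitation) from an Eu anti-phospho antibody binding the phosphorylated ULight peptide. The ATP-started reaction ran 1 h at RT and was then quenched with 10 mM EDTA plus antibody for a further 1 h. Compounds were tested as 8-point, 3-fold dilutions.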

The target of the next assay is EGFR wt (Homo sapiens, UniProt P00533). Description: EGFR wt Lance assay. Type of assay: biochemical. On the procedure: as §2
Sequence of EGFR wt (P00533 25-1210): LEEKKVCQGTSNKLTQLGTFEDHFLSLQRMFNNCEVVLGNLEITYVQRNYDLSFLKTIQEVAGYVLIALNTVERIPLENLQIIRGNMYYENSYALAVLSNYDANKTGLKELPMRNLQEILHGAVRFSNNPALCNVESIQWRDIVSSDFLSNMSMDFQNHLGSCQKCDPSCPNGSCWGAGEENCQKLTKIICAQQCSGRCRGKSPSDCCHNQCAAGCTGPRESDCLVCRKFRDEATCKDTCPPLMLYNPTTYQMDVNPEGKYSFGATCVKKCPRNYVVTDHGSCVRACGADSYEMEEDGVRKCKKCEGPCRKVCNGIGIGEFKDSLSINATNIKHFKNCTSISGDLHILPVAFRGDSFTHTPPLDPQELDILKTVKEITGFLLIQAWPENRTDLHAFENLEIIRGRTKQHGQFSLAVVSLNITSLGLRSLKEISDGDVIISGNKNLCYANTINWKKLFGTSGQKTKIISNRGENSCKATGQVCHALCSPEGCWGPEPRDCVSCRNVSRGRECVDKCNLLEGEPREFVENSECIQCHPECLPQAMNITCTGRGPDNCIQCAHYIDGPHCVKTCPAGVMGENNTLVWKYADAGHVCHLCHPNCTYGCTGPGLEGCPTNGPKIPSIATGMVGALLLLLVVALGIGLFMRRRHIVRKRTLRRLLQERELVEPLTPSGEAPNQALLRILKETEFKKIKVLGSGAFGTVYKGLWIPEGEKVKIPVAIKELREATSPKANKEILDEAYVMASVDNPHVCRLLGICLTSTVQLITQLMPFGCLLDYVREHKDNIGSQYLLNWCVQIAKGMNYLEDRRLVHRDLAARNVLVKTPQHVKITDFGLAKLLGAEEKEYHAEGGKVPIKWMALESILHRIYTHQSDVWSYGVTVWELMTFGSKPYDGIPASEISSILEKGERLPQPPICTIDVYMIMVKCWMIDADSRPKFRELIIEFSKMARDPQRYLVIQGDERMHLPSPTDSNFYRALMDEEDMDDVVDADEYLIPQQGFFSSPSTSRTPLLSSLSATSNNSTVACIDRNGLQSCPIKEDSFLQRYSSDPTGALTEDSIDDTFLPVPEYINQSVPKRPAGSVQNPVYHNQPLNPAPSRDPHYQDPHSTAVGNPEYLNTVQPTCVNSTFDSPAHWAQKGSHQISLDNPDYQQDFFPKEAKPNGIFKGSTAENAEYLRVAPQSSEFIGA
Assay [1] concerns the target EGFR Exon 20 INSNPH Ba/F3 (Homo sapiens, UniProt P00533, DUP771-773, cells depend on it). Description: EGFR Exon 20 INSNPH Ba/F3 CellTiter-Glo. It counts as cell-based. Conditions: CellTiter-Glo, 72 h, read-out: EGFR Exon 20 INSNPH Ba/F3 CTG IC50. Summed up: (§3)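 Ba/F3 cells were seeded, left 24 h at 37 °C/5% CO2, then exposed to compound dilutions in DMSO for 72 h. Viability was read as ATP luminescence (CellTiter-Glo) and IC50 fitted from dose–response curves; DMSO and 10 μM staurosporine defined the controls, and plates needed Z′ ≥0.5.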

In assay [2] the target is Her2 Exon 20 INSYVMA Ba/F3 (Homo sapiens, UniProt P04626, DUP772-775, cells depend on it). Briefly: Her2 Exon 20 INSYVMA Ba/F3 CellTiter-Glo. It counts as cell-based. Conditions: CellTiter-Glo, 72 h, read-out: Her2 Exon 20 INSYVMA Ba/F3 CTG IC50. Summed up: as §3
Sequence of Her2 Exon 20 INSYVMA Ba/F3 (P04626 with tags, fused parts or gaps DUP772-775): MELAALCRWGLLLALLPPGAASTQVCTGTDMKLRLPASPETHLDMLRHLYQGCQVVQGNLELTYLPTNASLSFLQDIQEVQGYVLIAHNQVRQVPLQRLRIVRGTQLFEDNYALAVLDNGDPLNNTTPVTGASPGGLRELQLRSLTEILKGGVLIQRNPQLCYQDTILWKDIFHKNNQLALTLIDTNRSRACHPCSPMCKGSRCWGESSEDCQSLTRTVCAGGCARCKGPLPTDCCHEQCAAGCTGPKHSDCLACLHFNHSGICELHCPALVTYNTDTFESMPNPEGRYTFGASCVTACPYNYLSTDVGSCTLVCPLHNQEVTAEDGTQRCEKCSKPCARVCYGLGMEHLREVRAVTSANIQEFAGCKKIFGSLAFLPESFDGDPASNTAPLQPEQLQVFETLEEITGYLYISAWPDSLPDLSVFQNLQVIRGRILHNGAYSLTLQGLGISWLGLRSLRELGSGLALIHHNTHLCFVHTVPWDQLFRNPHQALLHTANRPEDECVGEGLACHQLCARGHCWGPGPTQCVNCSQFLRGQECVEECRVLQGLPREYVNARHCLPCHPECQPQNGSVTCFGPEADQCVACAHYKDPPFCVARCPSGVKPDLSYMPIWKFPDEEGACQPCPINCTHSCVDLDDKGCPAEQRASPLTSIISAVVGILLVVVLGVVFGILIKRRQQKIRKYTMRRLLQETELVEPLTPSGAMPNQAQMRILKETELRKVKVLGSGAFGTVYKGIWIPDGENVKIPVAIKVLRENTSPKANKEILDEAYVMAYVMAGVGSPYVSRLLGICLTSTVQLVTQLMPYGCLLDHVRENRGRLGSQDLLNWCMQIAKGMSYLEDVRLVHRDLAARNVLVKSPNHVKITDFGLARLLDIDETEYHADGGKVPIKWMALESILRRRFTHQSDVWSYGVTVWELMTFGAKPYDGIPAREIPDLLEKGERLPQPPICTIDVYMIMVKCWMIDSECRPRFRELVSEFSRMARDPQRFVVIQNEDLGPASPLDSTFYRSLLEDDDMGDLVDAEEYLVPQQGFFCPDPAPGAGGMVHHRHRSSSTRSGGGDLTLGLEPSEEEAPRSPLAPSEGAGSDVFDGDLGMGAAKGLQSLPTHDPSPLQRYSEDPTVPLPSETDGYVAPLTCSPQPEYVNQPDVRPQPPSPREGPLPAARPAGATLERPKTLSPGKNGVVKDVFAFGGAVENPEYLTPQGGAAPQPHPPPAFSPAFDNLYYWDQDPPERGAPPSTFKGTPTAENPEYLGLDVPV
The next assay concerns A431. Briefly: A431 CellTiter-Glo. Type of assay: cell-based. Conditions: Homo sapiens, A-431; 72 h compound incubation; read-out: A431 CTG IC50. An outline of the steps:
as §1

A value given as a limit tells only on which side of the number the result lay.

Sequence of EGFR Exon 20 INSNPH Ba/F3 (P00533 with tags, fused parts or gaps DUP771-773): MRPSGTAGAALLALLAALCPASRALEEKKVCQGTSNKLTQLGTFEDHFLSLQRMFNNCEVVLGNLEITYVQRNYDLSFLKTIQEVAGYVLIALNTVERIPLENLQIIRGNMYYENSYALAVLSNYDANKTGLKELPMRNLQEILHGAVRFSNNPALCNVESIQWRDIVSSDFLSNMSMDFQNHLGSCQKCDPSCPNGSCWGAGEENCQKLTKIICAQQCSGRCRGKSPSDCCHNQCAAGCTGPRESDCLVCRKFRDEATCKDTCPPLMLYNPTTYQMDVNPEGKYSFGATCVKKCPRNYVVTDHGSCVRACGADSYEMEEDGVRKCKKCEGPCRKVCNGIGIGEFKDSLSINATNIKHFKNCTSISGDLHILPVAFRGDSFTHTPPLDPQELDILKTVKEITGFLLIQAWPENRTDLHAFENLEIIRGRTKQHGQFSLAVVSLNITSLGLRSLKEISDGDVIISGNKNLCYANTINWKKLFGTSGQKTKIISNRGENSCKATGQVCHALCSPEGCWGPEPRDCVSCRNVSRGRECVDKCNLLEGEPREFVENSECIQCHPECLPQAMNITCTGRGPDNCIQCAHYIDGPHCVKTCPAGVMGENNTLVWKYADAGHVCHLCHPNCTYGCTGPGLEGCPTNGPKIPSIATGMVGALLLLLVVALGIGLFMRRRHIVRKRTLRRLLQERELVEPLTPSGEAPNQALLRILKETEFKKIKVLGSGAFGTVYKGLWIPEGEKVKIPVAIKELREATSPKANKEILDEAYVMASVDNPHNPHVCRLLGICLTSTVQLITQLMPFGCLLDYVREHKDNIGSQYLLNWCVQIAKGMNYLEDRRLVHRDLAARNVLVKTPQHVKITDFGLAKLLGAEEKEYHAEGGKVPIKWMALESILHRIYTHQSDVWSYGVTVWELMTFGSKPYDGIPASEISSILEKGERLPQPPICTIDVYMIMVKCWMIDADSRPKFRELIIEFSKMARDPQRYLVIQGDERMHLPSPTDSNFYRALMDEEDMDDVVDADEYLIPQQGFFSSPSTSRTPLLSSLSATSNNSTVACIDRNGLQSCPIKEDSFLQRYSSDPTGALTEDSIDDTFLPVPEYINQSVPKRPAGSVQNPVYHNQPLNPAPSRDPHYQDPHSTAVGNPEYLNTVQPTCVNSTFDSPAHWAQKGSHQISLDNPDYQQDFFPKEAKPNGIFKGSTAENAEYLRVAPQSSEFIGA
Sequence of EGFR T790ML858R (P00533 25-1210 T790M/L858R): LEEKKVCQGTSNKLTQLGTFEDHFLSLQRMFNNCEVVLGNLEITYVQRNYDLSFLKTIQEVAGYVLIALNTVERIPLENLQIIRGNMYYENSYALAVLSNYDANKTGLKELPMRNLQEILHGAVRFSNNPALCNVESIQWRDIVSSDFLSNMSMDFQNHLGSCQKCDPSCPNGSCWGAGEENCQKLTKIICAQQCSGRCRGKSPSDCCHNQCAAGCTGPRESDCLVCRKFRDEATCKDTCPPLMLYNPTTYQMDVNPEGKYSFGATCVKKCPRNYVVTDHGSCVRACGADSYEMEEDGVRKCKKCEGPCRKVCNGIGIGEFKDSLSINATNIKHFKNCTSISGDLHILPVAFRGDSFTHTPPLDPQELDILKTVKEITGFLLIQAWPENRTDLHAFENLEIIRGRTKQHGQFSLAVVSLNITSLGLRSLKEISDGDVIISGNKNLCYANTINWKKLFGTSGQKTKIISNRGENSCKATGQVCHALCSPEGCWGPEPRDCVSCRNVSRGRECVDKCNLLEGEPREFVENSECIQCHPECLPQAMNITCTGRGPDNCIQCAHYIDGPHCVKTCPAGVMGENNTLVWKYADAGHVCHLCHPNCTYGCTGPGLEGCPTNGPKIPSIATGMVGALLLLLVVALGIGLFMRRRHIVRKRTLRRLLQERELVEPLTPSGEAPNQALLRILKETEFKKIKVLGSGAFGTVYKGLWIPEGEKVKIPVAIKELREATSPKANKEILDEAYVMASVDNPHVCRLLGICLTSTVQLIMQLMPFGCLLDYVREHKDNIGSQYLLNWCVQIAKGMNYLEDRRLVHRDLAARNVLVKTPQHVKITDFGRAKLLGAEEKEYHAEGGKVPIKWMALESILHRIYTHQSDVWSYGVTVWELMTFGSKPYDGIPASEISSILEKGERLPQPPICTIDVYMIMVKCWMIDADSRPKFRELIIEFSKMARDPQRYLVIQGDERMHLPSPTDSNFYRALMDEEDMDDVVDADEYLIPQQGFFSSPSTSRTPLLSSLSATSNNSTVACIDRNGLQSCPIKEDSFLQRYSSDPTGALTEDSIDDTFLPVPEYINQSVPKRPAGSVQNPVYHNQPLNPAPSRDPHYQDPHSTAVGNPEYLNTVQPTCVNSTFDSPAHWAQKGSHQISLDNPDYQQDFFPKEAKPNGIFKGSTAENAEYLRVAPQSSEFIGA

As to `C=CC(=O)Nc1cc(-c2c(-c3ccc(N4CCN(C)CC4)nc3)[nH]c3ncc(C(=O)OC(C)C)cc23)cc(F)c1C` [Example 174, isopropyl 3-(3-acrylamido-5-fluoro-4-methylphenyl)-2-(6-(4-methylpiperazin-1-yl)pyridin-3-yl)-1H-pyrrolo[2,3-b]pyridine-5-carboxylate], the IC50 in the assay on H1975 is 500 to 1000 nM; on EGFR T790ML858R, at most 100 nM; at HER2 INS YVMA, at most 100 nM; against EGFR wt it was at most 100 nM; with A431 it was 1000 to 100000 nM. Moreover, the GI50 was in the range of 100 to 500 nM in assay [1] and 500 to 1000 nM in assay [2].

As for `C=CC(=O)Nc1cc(-c2c(-c3ccc(N4CCN(C)CC4)cc3)[nH]c3ncc(C(=O)NCc4cccc(NC(C)=O)c4)cc23)ccc1C` [Example 121, N-(3-acetamidobenzyl)-3-(3-acrylamido-4-methylphenyl)-2-(4-(4-methylpiperazin-1-yl)phenyl)-1H-pyrrolo[2,3-b]pyridine-5-carboxamide], the IC50 with H1975 was above 10000 nM; on EGFR T790ML858R, 100 to 500 nM; against HER2 INS YVMA, at most 100 nM; against EGFR wt it was at most 100 nM; with A431, above 10000 nM. Also, the GI50 in assay [1] and in assay [2] was above 10000 nM in each case.

Turning to `C=CC(=O)Nc1cc(-c2c(-c3ccc(OCCO)cc3)[nH]c3ncc(C(=O)OC(C)C)cc23)ccc1C` [Example 178, isopropyl 3-(3-acrylamido-4-methylphenyl)-2-(4-(2-hydroxyethoxy)phenyl)-1H-pyrrolo[2,3-b]pyridine-5-carboxylate], the IC50 in the assay with H1975 is 1000 to 100000 nM; at EGFR T790ML858R, 100 to 500 nM; against HER2 INS YVMA, 100 to 500 nM; on EGFR wt, at most 100 nM; in the assay with A431, 1000 to 100000 nM. The figures for the GI50 in assay [1] and in assay [2] were 500 to 1000 nM and 1000 to 10000 nM, respectively.

Take `C=CC(=O)Nc1cc(-c2c(-c3ccc(N4CCN(C)CC4)cc3)[nH]c3ncc(C(=O)NCCc4ccncc4)cc23)ccc1C` [Example 123, 3-(3-acrylamido-4-methylphenyl)-2-(4-(4-methylpiperazin-1-yl)phenyl)-N-(2-(pyridin-4-yl)ethyl)-1H-pyrrolo[2,3-b]pyridine-5-carboxamide]: the IC50 is above 10000 nM in the assay with H1975; at most 100 nM at EGFR T790ML858R; 500 to 1000 nM on HER2 INS YVMA; at most 100 nM against EGFR wt; 1000 to 100000 nM with A431. Moreover, the GI50 in assay [1] and in assay [2] was 1000 to 10000 nM each time.

On to `C=CC(=O)Nc1cc(-c2c(-c3ccc(CCO)cc3)[nH]c3ncc(C(=O)OC(C)C)cc23)ccc1C` [Example 168, isopropyl 3-(3-acrylamido-4-methylphenyl)-2-(4-(2-hydroxyethyl)phenyl)-1H-pyrrolo[2,3-b]pyridine-5-carboxylate], for which the IC50 is 1000 to 100000 nM with H1975; 100 to 500 nM on EGFR T790ML858R; 100 to 500 nM against HER2 INS YVMA; at most 100 nM against EGFR wt; 1000 to 100000 nM with A431. Also, the GI50 in assay [1] and in assay [2] was 500 to 1000 nM throughout.

For `C=CC(=O)Nc1cc(-c2c(-c3ccc(N4CCN(C(C)=O)CC4)cc3)[nH]c3ncc(C(=O)OC(C)C)cc23)ccc1C` [Example 162, isopropyl 2-(4-(4-acetylpiperazin-1-yl)phenyl)-3-(3-acrylamido-4-methylphenyl)-1H-pyrrolo[2,3-b]pyridine-5-carboxylate], the IC50 with H1975 was 1000 to 100000 nM; at EGFR T790ML858R, at most 100 nM; against HER2 INS YVMA, at most 100 nM; at EGFR wt, at most 100 nM; in the assay with A431, 1000 to 100000 nM. Also, the values for the GI50 in assay [1] and in assay [2] were 500 to 1000 nM and 1000 to 10000 nM, respectively.

Turning to `C=CC(=O)Nc1cc(-c2c(-c3ccc(S(=O)(=O)N4CCN(C)CC4)cc3)[nH]c3ncc(C(=O)OC(C)C)cc23)ccc1C` [Example 167, isopropyl 3-(3-acrylamido-4-methylphenyl)-2-(4-((4-methylpiperazin-1-yl)sulfonyl)phenyl)-1H-pyrrolo[2,3-b]pyridine-5-carboxylate], the IC50 in the assay on H1975 was 500 to 1000 nM; at EGFR T790ML858R it was at most 100 nM; at HER2 INS YVMA, 100 to 500 nM; against EGFR wt, at most 100 nM; in the assay on A431, 1000 to 100000 nM. For the same molecule, the GI50 in assay [1] and in assay [2] was 500 to 1000 nM in each case.

Regarding `C=CC(=O)Nc1cc(-c2c(-c3ccc(N4CCN(C)CC4)cc3)[nH]c3ncc(C(=O)NCc4ccc(CN5CCN(C)CC5)cc4)cc23)ccc1C` [Example 122, 3-(3-acrylamido-4-methylphenyl)-N-(4-((4-methylpiperazin-1-yl)methyl)benzyl)-2-(4-(4-methylpiperazin-1-yl)phenyl)-1H-pyrrolo[2,3-b]pyridine-5-carboxamide], the IC50 in the assay with H1975 was 1000 to 100000 nM; at EGFR T790ML858R, at most 100 nM; at HER2 INS YVMA it was at most 100 nM; on EGFR wt, at most 100 nM; in the assay with A431, 1000 to 100000 nM. The GI50 in assay [1] and in assay [2] was 1000 to 10000 nM throughout.

With `C=CC(=O)Nc1cc(-c2c(-c3ccc(N4CCN(C)CC4)cc3)[nH]c3ncc(CO)cc23)ccc1C` [Example 199, N-(5-(5-(hydroxymethyl)-2-(4-(4-methylpiperazin-1-yl)phenyl)-1H-pyrrolo[2,3-b]pyridin-3-yl)-2-methylphenyl)acrylamide 2,2,2-trifluoroacetate], the IC50 was 100 to 500 nM in the assay on H1975; at most 100 nM at EGFR T790ML858R; at most 100 nM against HER2 INS YVMA; at most 100 nM on EGFR wt; 1000 to 100000 nM in the assay with A431. The GI50 was in the range of 100 to 500 nM in assay [1] and 500 to 1000 nM in assay [2].

Consider `C=CC(=O)Nc1cc(-c2c(-c3cccc(C(=O)NCCCN4CCCC4)c3)[nH]c3nccc(Cl)c23)ccc1C` [Example 47, 3-(3-(3-acrylamido-4-methylphenyl)-4-chloro-1H-pyrrolo[2,3-b]pyridin-2-yl)-N-(3-(pyrrolidin-1-yl)propyl)benzamide], for which the concentration for half-maximal inhibition (IC50) with H1975 was at most 100 nM; at EGFR T790ML858R, at most 100 nM; on HER2 INS YVMA, at most 100 nM; against EGFR wt it was at most 100 nM; with A431 it was 500 to 1000 nM. Moreover, the GI50 in assay [1] and in assay [2] was 1000 to 10000 nM in each case.

With `C=CC(=O)Nc1cc(-c2c(-c3cccc(CN4CCN(C)CC4)c3)[nH]c3ncc(C(=O)OC(C)C)cc23)ccc1C` [Example 181, isopropyl 3-(3-acrylamido-4-methylphenyl)-2-(3-((4-methylpiperazin-1-yl)methyl)phenyl)-1H-pyrrolo[2,3-b]pyridine-5-carboxylate], the half-inhibitory concentration (IC50) in the assay on H1975 was 500 to 1000 nM; against EGFR T790ML858R, at most 100 nM; against HER2 INS YVMA, at most 100 nM; against EGFR wt, at most 100 nM; in the assay with A431, 1000 to 100000 nM. In addition, the GI50 in assay [1] and in assay [2] was 500 to 1000 nM in each case.

Take `C=CC(=O)Nc1cc(-c2c(-c3ccc(N4CCN(C)CC4)cc3)[nH]c3ncc(C(=O)NCc4ccccc4)cc23)ccc1C` [Example 118, 3-(3-acrylamido-4-methylphenyl)-N-benzyl-2-(4-(4-methylpiperazin-1-yl)phenyl)-1H-pyrrolo[2,3-b]pyridine-5-carboxamide 2,2,2-trifluoroacetate]: the IC50 is 500 to 1000 nM in the assay with H1975; at most 100 nM against EGFR T790ML858R; at most 100 nM against HER2 INS YVMA; at most 100 nM at EGFR wt; 500 to 1000 nM in the assay on A431. In addition, the GI50 in assay [1] and in assay [2] was 100 to 500 nM throughout.

In the case of `C=CC(=O)Nc1cc(-c2c(-c3ccc(N4CCN(C)CC4)cc3)[nH]c3ncc(C(=O)OCCOC)cc23)ccc1C` [Example 140, 2-methoxyethyl 3-(3-acrylamido-4-methylphenyl)-2-(4-(4-methylpiperazin-1-yl)phenyl)-1H-pyrrolo[2,3-b]pyridine-5-carboxylate], the IC50 was 100 to 500 nM in the assay with H1975; at most 100 nM against EGFR T790ML858R; at most 100 nM against HER2 INS YVMA; at most 100 nM against EGFR wt; 1000 to 100000 nM in the assay with A431. Also, the GI50 in assay [1] and in assay [2] was 100 to 500 nM each time.
